Assay results from article PMC9332470, “Production and Selection of Antibody–Antigen Pairs for the Development of Immunoenzyme Assay and Lateral Flow Immunoassay Methods for Carbofuran and Its Analogues” (Biosensors, 2022).
In brackets after ≈: the same amount, converted by molar mass.

What was measured:
[1] = system: mAb 13C8; experiment: indirect competitive ELISA (icELISA) with mAb 13C8; assay type: binding, BALB/c mice; conditions: for IC50 (ELISA): optimized ELISA, mAb 13C8 0.03 μg/mL, coating antigen 0.1 μg/mL, given as MDA-BSA and MDA-OVA, unit from text
Procedure: (§1) Microplates were coated with coating antigens. Different concentrations of the standard (50 µL) and the mAb (50 µL) were added to each well, and the plates were incubated for 20 min at 37 °C. The plates were washed with PBS (0.01 M, containing 0.05% (v/v) Triton X-100), 100 μL of goat anti-mouse IgG-HRP conjugate solution was added to each well, and the plates were incubated for 20 min at 37 °C. After the plates were washed with PBS (0.01 M, containing 0.05% Triton X-100, v/v), 100 µL of TMB single-component substrate solution was added to each well, followed by incubation at 37 °C for 10 min. Finally, the reaction was terminated, and the absorbance at 450 nm was measured by a microplate reader.
(§2) Taking the logarithm of the carbofuran concentration as the abscissa and (B/B0)% as the ordinate, the standard curves for ELISA and QD-LFIA were obtained based on the Morgan–Mercer–Flodin (MMF) model, which were fitted by CurveExpert 1.4.0 software (https://www.curveexpert.net, accessed on 15 July 2022). For the ELISA method, B and B0 are the absorbance of the sample well and blank well, respectively. For the QD-LFIA method, B and B0 are the T/C (fluorescence intensity of the test line/fluorescence intensity of the control line) of the sample and blank control, respectively.
(§3) The inhibition ratio (I%) was calculated as (B0-B)/B0 × 100%. IC50 is the concentration of the carbofuran at an I% of 50%, and the limit of detection (LOD) was determined as the concentration showing 10% of inhibition.
(§4) The cross-reactivities (CRs) of benfuracarb, carbosulfan, 3-hydroxy-carbofuran, metolcarb, carbaryl, isoprocarb and aldicarb with carbofuran were assessed by ELISA and QD-LFIA. CR was calculated as CR (%) = [IC50 (carbofuran)/IC50 (analogues)] × 100%.
The microplate was coated with the coating antigens DDB-BSA (1 µg/mL), DDB-OVA (0.5 µg/mL), MDA-BSA (0.2 µg/mL) and MDA-OVA (0.1 µg/mL), and the concentration of mAb 13C8 was 0.03 µg/mL. Carbofuran standards (0, 0.05, 0.15, 0.45, 1.35 and 4.05 ng/mL) were detected to obtain a standard curve, and the IC50 was calculated. […] In the icELISA used in this study, free antigen (carbofuran) in solution competed with the coating antigen on the microplate for antibody 13C8; therefore, the IC50 value was negatively correlated with the antibody-binding ability of free antigen competing with coating antigens.
The ELISA method was developed with the antibody 13C8–antigen MDA-BSA pair. Under the optimized coating antigen concentration (0.1 μg/mL), HRP-conjugated goat anti-mouse IgG concentration (1 μg/mL), antibody concentration (0.03 μg/mL) and working buffer parameters (5 mM PBS at pH 7.4), a standard curve was obtained with the concentration of carbofuran on the abscissa and the inhibition ratio (B/B0) on the ordinate.

[2] = system: mAb 13C8; experiment: quantum dot-based LFIA (QD-LFIA) with mAb 13C8; assay type: binding, BALB/c mice; conditions: for IC50 (QD-LFIA): optimized QD-LFIA, mAb 13C8-QD, T line antigen 30 μg/mL, given as MDA-BSA and MDA-OVA
Procedure: One milliliter of QDs was added to 9 mL of MES (0.054 M at pH 6.0) and centrifuged at 10,956× g for 20 min. Then, the precipitate was resuspended in 10 mL of MES (0.05 M at pH 6.0). After dispersion by ultrasonication for 2 min, EDC (20 mg) and NHS (20 mg) were added, and the reaction mixture was incubated for 30 min, followed by centrifugation at 10,956× g for 20 min. The precipitate was resuspended in 10 mL of MES (0.05 M at pH 6.0). Then, 1 mg of the mAb dissolved in 10 mL MES (0.027 M at pH 8.0) was added to the QD mixture and shaken at 25 °C and 180 rpm for 90 min. After the reaction, 5 mL of MES (0.054 M at pH 6.0 containing 1.6% BSA, w/v) was added, and the mixture was shaken at 25 °C and 180 rpm for 40 min, followed by centrifugation at 10,956× g for 20 min. The precipitate was resuspended in 10 mL of PB (0.01 M at pH 6.0, containing 5% casein, 1% glucose, 1.5% alanine and 0.05% NaN3, w/v) and dispersed by ultrasonication for 2 min.
The conjugate pad (6 mm × 300 mm) was pretreated with PBS (containing 0.5% Triton X-100, 0.5% alanine and 0.05% NaN3, w/v). Then, 1 mL of the mAb–QD conjugate was sprayed onto the pretreated conjugate pad at a flow rate of 10 μL/cm, and the pad was dried at 37 °C for 2 h. Other applied protocols were similar to those mentioned above.
as §2, §3, §4
Then, to prepare QD-LFIA test strips, DDB-BSA (40 μg/mL), DDB-OVA (50 μg/mL), MDA-BSA (35 μg/mL) and MDA-OVA (30 μg/mL) were dispensed onto the NC membrane, and antibody 13C8 was conjugated to the QDs. Carbofuran standards (0, 0.05, 0.15, 0.45, 1.35 and 4.05 ng/mL) were detected to obtain a standard curve, and the IC50 was calculated. […] In LFIA, carbofuran in solution competed with the coating antigen on the NC membrane for antibody 13C8 conjugated to the QDs.
A standard curve was developed with the inhibition ratio (B/B0) versus the logarithm of the concentration of carbofuran.

[3] = system: mAb with the immunogen 3-succinyl-carbofuran-KLH; conditions: cited from earlier work
[4] = system: mAb 13C8; experiment: ELISA reactivity of hybridoma supernatant, cell line 13C8; assay type: binding, BALB/c mice; conditions: cell line 13C8 supernatant, 50 ng/mL pesticide
Procedure: (§5) The desired antibodies with the highest affinity were screened by icELISA with carbofuran as a competitive compound, and hybridoma cells were cloned by the limited dilution method. Then, the selected hybridoma cells were injected into mice for ascites production. Finally, the mAbs were purified by (NH4)2SO4 with saturation of 50% and further purified by an SPA column.
as §1, §3
(§6) Then, the reactivity of the supernatant of the six cell lines to 50 ng/mL carbofuran, benfuracarb and carbosulfan was assessed by ELISA, and the results are shown in Table 1. […] Because 13C8 had the highest reactivity with carbofuran, benfuracarb and carbosulfan among the six cell lines, it was injected into mice for ascites production, and the mAbs were purified by a protein A column for further experiments.

[5] = system: mAb 6D6; experiment: ELISA reactivity of hybridoma supernatant, cell line 6D6; assay type: binding, BALB/c mice; conditions: cell line 6D6 supernatant, 50 ng/mL pesticide
Procedure: as §5, §1, §3, §6

[6] = system: mAb 12D6; experiment: ELISA reactivity of hybridoma supernatant, cell line 12D6; assay type: binding, BALB/c mice; conditions: cell line 12D6 supernatant, 50 ng/mL pesticide
Procedure: as §5, §1, §3, §6

[7] = system: mAb 18G3; experiment: ELISA reactivity of hybridoma supernatant, cell line 18G3; assay type: binding, BALB/c mice; conditions: cell line 18G3 supernatant, 50 ng/mL pesticide
Procedure: as §5, §1, §3, §6

[8] = system: mAb 12H5; experiment: ELISA reactivity of hybridoma supernatant, cell line 12H5; assay type: binding, BALB/c mice; conditions: cell line 12H5 supernatant, 50 ng/mL pesticide
Procedure: as §5, §1, §3, §6

[9] = system: mAb 7F9; experiment: ELISA reactivity of hybridoma supernatant, cell line 7F9; assay type: binding, BALB/c mice; conditions: cell line 7F9 supernatant, 50 ng/mL pesticide
Procedure: as §5, §1, §3, §6

[10] = system: broad-specificity mAb with the immunogen BFNB-BSA; conditions: cited from earlier work

Structure (SMILES)	IC50 (ELISA) [1]	IC50 (QD-LFIA) [2]	CR(%) (ic-ELISA) [10]	IC50 (ic-ELISA) [10]	also measured
CNC(=O)Oc1cccc2c1OC(C)(C)C2O (centres unmarked) [3-hydroxy-carbofuran]	0.00025 ± 5e-05 µg/mL (≈ 0.00105 µM)	0.00087 ± 6e-05 µg/mL (≈ 0.00367 µM)			CR(%) (ic-ELISA) [3]: 110.1%; IC50 (ic-ELISA) [3]: 0.00069 ± 8e-05 µg/mL (≈ 0.00291 µM)
CNC(=O)O/N=C/C(C)(C)SC [aldicarb]	>0.02 µg/mL	>0.1 µg/mL			
CCOC(=O)CCN(SN(C)C(=O)Oc1cccc2c1OC(C)(C)C2)C(C)C [benfuracarb]	0.00023 ± 3e-05 µg/mL (≈ 0.00056 µM)	0.00081 ± 7e-05 µg/mL (≈ 0.00197 µM)			Reactivity of mAb (I%) [4]: 91%; Reactivity of mAb (I%) [5]: 53%; Reactivity of mAb (I%) [6]: 55%; Reactivity of mAb (I%) [7]: 76%; Reactivity of mAb (I%) [8]: 70%; Reactivity of mAb (I%) [9]: 68%
CNC(=O)Oc1cccc2ccccc12 [carbaryl]	>0.02 µg/mL	>0.1 µg/mL	8.5%	0.10559 µg/mL (≈ 0.525 µM)	
CCCCN(CCCC)SN(C)C(=O)Oc1cccc2c1OC(C)(C)C2 [carbosulfan]	0.00024 ± 4e-05 µg/mL (≈ 0.000631 µM)	0.00084 ± 9e-05 µg/mL (≈ 0.00221 µM)	7.7%	0.1158 µg/mL (≈ 0.304 µM)	Reactivity of mAb (I%) [4]: 90%; Reactivity of mAb (I%) [5]: 61%; Reactivity of mAb (I%) [6]: 46%; Reactivity of mAb (I%) [7]: 71%; Reactivity of mAb (I%) [8]: 67%; Reactivity of mAb (I%) [9]: 65%
CNC(=O)Oc1ccccc1C(C)C [isoprocarb]	>0.02 µg/mL	>0.1 µg/mL	50.7%	0.01768 µg/mL (≈ 0.0915 µM)	CR (%) (ELISA) ([1]; CR = IC50(carbofuran)/IC50(analogue) x 100%, optimized ELISA with mAb 13C8): <1%; CR (%) (QD-LFIA) ([2]; CR = IC50(carbofuran)/IC50(analogue) x 100%, QD-LFIA with mAb 13C8): <1%
CNC(=O)Oc1cccc(C)c1 [metolcarb]	>0.02 µg/mL	>0.1 µg/mL			
CNC(=O)Oc1ccccc1OC(C)C [propoxur]			25.8%	0.03475 µg/mL (≈ 0.166 µM)	
